The assay deals with T1, CD133 (Homo sapiens, UniProt O43490).
T1 construct: gene PROM1
T1 sequence (O43490 20-865): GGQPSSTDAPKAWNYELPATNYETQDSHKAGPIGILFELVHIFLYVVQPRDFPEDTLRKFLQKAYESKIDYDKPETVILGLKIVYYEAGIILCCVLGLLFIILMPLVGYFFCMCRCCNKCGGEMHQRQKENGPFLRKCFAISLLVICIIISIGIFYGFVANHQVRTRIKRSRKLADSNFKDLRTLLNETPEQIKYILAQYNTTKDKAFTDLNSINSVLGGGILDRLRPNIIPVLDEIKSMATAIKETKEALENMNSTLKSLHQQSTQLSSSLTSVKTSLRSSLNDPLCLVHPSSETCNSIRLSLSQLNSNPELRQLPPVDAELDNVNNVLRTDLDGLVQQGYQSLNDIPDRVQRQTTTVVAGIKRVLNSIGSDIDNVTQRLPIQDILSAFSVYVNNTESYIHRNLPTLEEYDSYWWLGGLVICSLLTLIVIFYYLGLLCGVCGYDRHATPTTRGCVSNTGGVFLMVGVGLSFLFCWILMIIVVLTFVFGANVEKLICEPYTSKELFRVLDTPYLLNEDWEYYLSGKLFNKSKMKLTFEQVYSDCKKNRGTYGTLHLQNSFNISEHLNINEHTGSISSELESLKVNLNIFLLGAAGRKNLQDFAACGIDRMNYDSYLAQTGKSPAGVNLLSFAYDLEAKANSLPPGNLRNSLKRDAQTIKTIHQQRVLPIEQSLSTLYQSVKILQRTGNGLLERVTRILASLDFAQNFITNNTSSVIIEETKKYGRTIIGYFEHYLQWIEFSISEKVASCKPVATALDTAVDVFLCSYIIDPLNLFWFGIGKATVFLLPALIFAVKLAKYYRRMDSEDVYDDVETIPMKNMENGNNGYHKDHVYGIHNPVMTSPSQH
Kind of assay: surface plasmon resonance (SPR), single-site fit, […] PA. Type of assay: binding.

In general, Kd refers to the equilibrium constant for the complex coming apart. High values mean a looser complex, low ones a tighter complex. Regarding `COc1ccc(C(=O)CCNC(C)=O)c(N)c1` [PA, pegaharoline A], binding was put at a Kd of 7.25 µM.

The values above are taken from PMC10454575, “A Novel Aniline Derivative from Peganum harmala L. Promoted Apoptosis via Activating PI3K/AKT/mTOR-Mediated Autophagy in Non-Small Cell Lung Cancer Cells” (International Journal of Molecular Sciences, 2023).
